Measured values published in patent US4528293A, “Heteroaromatic derivatives of iminomethyl piperidines and use to inhibit gastric acid secretion” (McNeilab, Inc., priority 1983, dated 1985).

Tested on: gastric acid secretion
Assay: Acute gastric fistula rat test: inhibition of gastric acid secretion (Total Acid Output)
Assay type: in vivo, Female Sprague-Dawley rats
Conditions: ip, compound administered intraperitoneally (footnote *), read-out: ED50 Acute Gastric Fistula (dose required to produce an average of 50% inhibition in Total Acid Output versus controls)
Description: The compounds of the invention of formula (I) are useful for the inhibition of gastric acid secretion as measured by the following test. Female Sprague-Dawley rats are fasted twenty-four hours before testing and are given water ad libidum while being kept in individual cages. On the day of testing, the rats are weighed within a range of ±20 grams.
Surgery is carried out under light ether anesthesia. As soon as the rat is anesthetized its teeth are removed and a mid-line incision is made on the abdomen about 11/2 inches in length and the stomach and duodenum are exposed. If at this point the stomach is filled with food or fecal material, the rat is discarded. If the condition of the stomach is acceptable, a purse string stitch is placed on the fundic portion of the stomach with a suture, taking care not to pierce any blood vessels in the area. A small nick is then made into the stomach in the center of the purse string, and a cannula, consisting of a small vinyl tube with a flange on one end, is put into the stomach, and the purse string stitch is closed tightly around the flange. The test compound is administered either intraduodonally (i.d.) immediately after surgery or orally (p.o.) one hour prior to surgery at doses generally ranging from about 0.25 to about 160 mg/kg in a volume of 0.5 ml/100 grams rat. Control rats receive the test vehicle, 0.5% aqueous hydroxypropyl methyl cellulose.
After surgery and, in the case of i.d. administration, after administration of the test compound, the abdominal wall and skin are closed simultaneously with three or four 18 mm wound clips and a collecting tube is placed on the cannula. Each rat is then placed in a box in which a longitudinal slit has been made to allow the cannula to hang freely and to allow the rat to move about unencumbered. After the rat has been allowed to stabilize for thirty minutes, the collection tube on the cannula is discarded and replaced with a clean tube to receive the gastric juice. Collections are made one hour after stabilization.
The sample of gastric contents collected is drained into a centrifuge tube and centrifuged to pack down the sediment. The volume is read and a 1 ml aliquot of the supernatant is put into a beaker containing 20 ml of distilled water and is titrated to pH 7 using 0.01N sodium hydroxide. Results are determined for Volume, Titratable Acid and Total Acid Output, where Volume equals total ml of gastric juice minus sediment; Titratable Acid (meq/1) equals amount of 0.01N sodium hydroxide needed to titrate the acid to pH 7; and Total Acid Output equals Titratable Acid times Volume. Results are reported as the ED50 dose (mg/kg required to produce an average of 50% inhibition in Total Acid Output versus controls in the animals tested for a particular compound) and as percent inhibition.

Work on C(=NCCc1c[nH]c2ccccc12)N1CCC(C(c2ccccc2)c2ccccc2)CC1 [Example 2, N-(4-Diphenylmethyl-1-piperidinyl)-methylene-3-1H-indoleethaneamine monohydroiodide] yielded an ED50 of 4.34 mg/kg.

Same assay, conditions: po, one hour prior to surgery, 1 h collection after 30 min stabilization, read-out: ED50 Acute Gastric Fistula (dose required to produce an average of 50% inhibition in Total Acid Output versus controls)

In order of falling ED50:
1. C(=NCCc1ccncc1)N1CCC(C(c2ccccc2)c2ccccc2)CC1 [Example 6, 4-Diphenylmethyl-1-[[2-(4-pyridinyl)ethyl]iminomethyl]piperidine 2-naphthalenesulfonate hydrate (4:4:3)]  18.8 mg/kg
2. C(=NCc1ccco1)N1CCC(C(c2ccccc2)c2ccccc2)CC1 [Example 1, 4-(Diphenylmethyl)-1-[(2-furanylmethyl)iminomethyl]piperidine (E)-2-butenedioate (1:1) hydrate (5:2)]  6.91 mg/kg
3. C(=NCc1cccs1)N1CCC(C(c2ccccc2)c2ccccc2)CC1 [Example 4, 4-(Diphenylmethyl)-1-[(2-thiophenemethyl)imino]methylpiperidine (E)-2-butenedioate (1:1) hydrate (2:1)]  6.59 mg/kg
4. Cn1cccc1CCN=CN1CCC(C(c2ccccc2)c2ccccc2)CC1.O=C(O)/C=C/C(=O)O [Example 3, 4-Diphenylmethyl-1-[N-[(1-methyl-1H-pyrrol-2-yl)ethyl]-iminomethyl]piperidine (E)-2-butenedioate]  3.61 mg/kg
5. C(=NCCc1ccccn1)N1CCC(C(c2ccccc2)c2ccccc2)CC1 [Example 5, 4-(Diphenylmethyl-1[[2-(2-pyridinyl)ethyl]iminomethyl]piperidine (E)-2-butenedioate (1:1)]  3.47 mg/kg
